According to ChEMBL document CHEMBL4402579, “Identification of Potent In Vivo Autotaxin Inhibitors that Bind to Both Hydrophobic Pockets and Channels in the Catalytic Domain” (J Med Chem, 2020):
The source made the active and inactive calls. The calls are words filed in the database; no cut-off is given here.

How the values were obtained:
Autotaxin [1] = biological target: Autotaxin (Mus musculus, UniProt Q9R1E6); test: Inhibition of ATX in mouse plasma after 2 hrs by LC-MS/MS analysis; type: cell-free
Autotaxin (Mus musculus) [2] = biological target: Autotaxin (Mus musculus) (UniProt Q9R1E6); test: Inhibition of ATX in mouse plasma assessed as reduction in LPA prodution at 10 uM after 3 hrs by LC-MS/MS analysis; type: cell-free
Autotaxin [3] = biological target: T1, Autotaxin (Homo sapiens, UniProt Q13822); test: Inhibition of ATX (unknown origin) expressed in human HEK293 cells using TG-mTMP as substrate after 2 hrs by fluorescence based plate reader assay
Autotaxin (Mus musculus) [4] = biological target: Autotaxin (Mus musculus) (UniProt Q9R1E6); test: Inhibition of mouse ATX expressed in one-cell stage zebra fish embryos assessed as rescue of cardia bifida phenotype at 10 uM incubated for 12 to 24 hrs post fertilization in presence of Ki16425 by whole mount in situ hybridization based microscopic analysis relative to control
Danio rerio = species on record: Danio rerio; test: Inhibition of AB/TU zebra fish ATX expressed in one-cell stage zebra fish embryos assessed as rescue of carida bifida phenotype at 10 uM incubated for 12 to 24 hrs post fertilization in presence of Ki16425 by whole mount in situ hybridization based microscopic analysis relative to control
Mus musculus = test: In vivo inhibition of ATX in C57BL/6J mouse assessed as reduction in serum LPA level at 4 mg/kg, iv after 15 mins to 3 hrs by LC-MS/MS analysis; type: functional, organism-based
Autotaxin (Mus musculus) [5] = biological target: Autotaxin (Mus musculus) (UniProt Q9R1E6); test: Inhibition of ATX in mouse plasma assessed as reduction in LPA prodution after 3 hrs by LC-MS/MS analysis; type: cell-free
Autotaxin [6] = biological target: T1, Autotaxin; test: Inhibition of ATX (unknown origin)-mediated cell migration in human MDA-MB-231 cells assessed as reduction in cell motility after 3 hrs by Diff-Quick staining based microplate reader analysis

SMILES	IC50 (Autotaxin [1]; read-out: IC50)	inhibition (Autotaxin (Mus musculus) [2])	other results
CCOC(=O)Cn1c(C)cc(=O)n2cc(-c3ccc(Br)cc3)nc12	0.013 µM	inactive	–
CCOC(=O)Cn1c(C)cc(=O)n2cc(-c3ccc([N+](=O)[O-])cc3)nc12	0.014 µM	–	–
Cc1cc(O)n2cc(-c3ccc(Cl)cc3)nc2n1	> 50 µM	inactive	–
CCNC(=O)Cn1c(C)cc(=O)n2cc(-c3ccc(Cl)cc3)nc12	0.37 µM	inactive	–
CCOC(=O)Cn1c(C)cc(=O)n2cc(-c3cccc(Br)c3)nc12	4 µM	–	–
CCCCCCCCCCCCCCCC(=O)n1c(C)cc(=O)n2cc(-c3ccc(Cl)cc3)nc12	–	–	IC50 (Autotaxin [1]): Nd(Insoluble)
CCCCCn1c(C)cc(=O)n2cc(-c3ccc(C)cc3)nc12	0.044 µM	Active	–
Cc1cc(=O)n2cc(-c3ccc(Cl)cc3)nc2n1Cc1ccccc1	0.031 µM	Active	–
Cc1cc(=O)n2cc(-c3ccc(Cl)cc3)nc2n1CC(=O)O	7.7 µM	inactive	–
Cc1cc(=O)n2cc(-c3ccc(Cl)cc3)nc2n1CCS(=O)(=O)O	> 50 µM	–	–
CCOC(=O)Cn1c(C)cc(=O)n2cc(-c3cccc([N+](=O)[O-])c3)nc12	0.5 µM	–	–
CN1CCN(C2=NC(=O)/C(=C/c3ccc(Cl)c(Cl)c3)S2)CC1	–	–	IC50 (Autotaxin [3]): 0.18 µM; inhibition (Autotaxin (Mus musculus) [4]): 96%; inhibition (Danio rerio): 3%
CCCCCCn1c(C)cc(=O)n2cc(-c3ccc(Cl)cc3)nc12	0.0099 µM	Active	inhibition (Mus musculus): Active; inhibition (Autotaxin (Mus musculus) [5]): Dose-dependent effect; inhibition (Autotaxin [6]): Dose-dependent effect
CCCCCCCCCC(=O)n1c(C)cc(=O)n2cc(-c3ccc(Cl)cc3)nc12	0.16 µM	–	–
CCCn1c(C)cc(=O)n2cc(-c3ccc(Cl)cc3)nc12	0.021 µM	–	–
Cc1cc(Cl)n2cc(-c3ccc(Cl)cc3)nc2n1	> 50 µM	–	–
CCOC(=O)Cn1c(C)cc(=O)n2cc(-c3ccc(F)cc3)nc12	0.031 µM	inactive	–
CCCCCCCn1c(C)cc(=O)n2cc(-c3ccc(Cl)cc3)nc12	0.016 µM	Active	–
CCC(=O)Cn1c(C)cc(=O)n2cc(-c3ccc(Cl)cc3)nc12	0.037 µM	Active	–

SMILES	IC50 (Autotaxin [1]; read-out: IC50)	inhibition (Autotaxin (Mus musculus) [2])	other results
Cc1ccc(-c2cn3c(O)cc(C)nc3n2)cc1	> 50 µM	inactive	–
CCCCCCCN/C=C1\C(=O)N(c2ccc(F)cc2)C(=O)N=C1O	–	–	inhibition (Autotaxin (Mus musculus) [4]): 94%; inhibition (Danio rerio): 1%
CCN1CCN(C2=NC(=O)/C(=C/c3ccc(Cl)cc3)S2)CC1	–	–	inhibition (Autotaxin (Mus musculus) [4]): 95%; inhibition (Danio rerio): 10%
Cc1nc2ccccn2c(=O)c1Cc1ccc(Cl)cc1	–	–	inhibition (Autotaxin (Mus musculus) [4]): 91%; inhibition (Danio rerio): 6%
CCCCn1c(C)cc(=O)n2cc(-c3ccc(Cl)cc3)nc12	0.015 µM	Active	–
CCOC(=O)Cn1c(C)cc(=O)n2cc(-c3ccc(OC)cc3)nc12	0.049 µM	inactive	–
COC(=O)Cn1c(C)cc(=O)n2cc(-c3ccc(Cl)cc3)nc12	0.026 µM	inactive	–
Cc1cc(O)n2cc(-c3ccccc3)nc2n1	> 50 µM	inactive	–
CCCCCn1c(C)cc(=O)n2cc(-c3ccc(F)cc3)nc12	0.071 µM	Active	–
COc1ccc(-c2cn3c(O)cc(C)nc3n2)cc1	> 50 µM	inactive	–
CCCCCCCCCn1c(C)cc(=O)n2cc(-c3ccc(Cl)cc3)nc12	0.12 µM	–	–
Cc1cc(=O)n2cc(-c3ccc(Cl)cc3)nc2n1C	0.18 µM	–	–
CCN(C)C(=O)Cn1c(C)cc(=O)n2cc(-c3ccc(Cl)cc3)nc12	0.22 µM	–	–
CCCCCn1c(C)cc(=O)n2cc(-c3ccc(Cl)cc3)nc12	0.0094 µM	Active	inhibition (Mus musculus): Active; inhibition (Autotaxin (Mus musculus) [5]): Dose-dependent effect
CCn1c(C)cc(=O)n2cc(-c3ccc(Cl)cc3)nc12	0.04 µM	–	–
CCOC(=O)Cn1c(C)cc(=O)n2cc(-c3ccccc3)nc12	0.072 µM	–	–
Cc1cc(O)n2cc(-c3ccc(Cl)c(Cl)c3)nc2n1	> 50 µM	inactive	–
CCOC(=O)Cn1c(C)cc(=O)n2cc(-c3ccc(Cl)c(Cl)c3)nc12	0.079 µM	–	–
Cc1cc(=O)n2cc(-c3ccc(Cl)cc3)nc2n1C1CCCCC1	0.073 µM	Active	–

SMILES	IC50 (Autotaxin [1]; read-out: IC50)	inhibition (Autotaxin (Mus musculus) [2])	other results
CCCCCCCCn1c(C)cc(=O)n2cc(-c3ccc(Cl)cc3)nc12	0.057 µM	–	–
CCOC(=O)Cn1c(C)cc(=O)n2cc(-c3ccc(I)cc3)nc12	0.019 µM	–	–
Cc1cc(O)n2cc(-c3ccc(F)cc3)nc2n1	> 50 µM	inactive	–
O=C1N=C(N2CCN(Cc3cccc(B(O)O)c3)CC2)S/C1=C\c1ccc(Cl)c(Cl)c1	–	–	IC50 (Autotaxin [3]): 0.013 µM; inhibition (Autotaxin (Mus musculus) [4]): 98%
COc1cc(C)nc2nc(-c3ccc(Cl)cc3)cn12	> 50 µM	–	–
Cc1cc(=O)n2cc(-c3ccc(Cl)cc3)nc2n1CC(=O)OC(C)(C)C	0.09 µM	inactive	–
CCOC(=O)Cn1c(C)cc(=O)n2cc(-c3ccc(Cl)cc3)nc12	0.0033 µM	inactive	IC50 (Autotaxin [3]): 0.0042 µM; inhibition (Autotaxin (Mus musculus) [4]): 93%; inhibition (Danio rerio): 8%
Cc1cc(=O)n2cc(-c3ccc(Cl)cc3)nc2n1CC(=O)OCc1ccccc1	0.056 µM	inactive	–
CC(=O)OCn1c(C)cc(=O)n2cc(-c3ccc(Cl)cc3)nc12	0.03 µM	–	–
Cc1cc(=O)n2cc(-c3ccc(Cl)cc3)nc2n1CC[N+](C)(C)C	> 50 µM	–	–
CCCCCn1c(C)cc(=O)n2cc(-c3ccc(Br)cc3)nc12	0.023 µM	Active	inhibition (Autotaxin (Mus musculus) [5]): Dose-dependent effect
CCOC(=O)Cn1c(C)cc(=O)n2cc(-c3cccc(N)c3)nc12	> 10 µM	–	–
CCOC(=O)Cn1c(C)cc(=O)n2cc(-c3ccc(N)cc3)nc12	> 10 µM	–	–
Cc1cc(O)n2cc(-c3cccc(Br)c3)nc2n1	> 50 µM	inactive	–
Cc1cc(O)n2cc(-c3cccc([N+](=O)[O-])c3)nc2n1	> 50 µM	inactive	–
Cc1cc(O)n2cc(-c3ccc([N+](=O)[O-])cc3)nc2n1	> 50 µM	inactive	–
CCOCCn1c(C)cc(=O)n2cc(-c3ccc(Cl)cc3)nc12	0.011 µM	Active	–
Cc1cc(O)n2cc(-c3ccc(Br)cc3)nc2n1	> 50 µM	inactive	–
